Laboratory results published in ChEMBL document CHEMBL4483862, “Open-source discovery of chemical leads for next-generation chemoprotective antimalarials” (2018).

System: Plasmodium berghei
Assay: Luciferase/luciferin-expressing antifolate-resistant parasites were used to infect a culture of HepG2 cells that were pre-incubated with compounds. Infected hepatocytes emit light due to the luciferase reaction. Assay results are presented as the percent inhibition of light emission compared to control. […]
Format: functional
Conditions: sporozoite; for IC90: read-out: LUCIFERASE INFECTION ASSAY - IC90
[1] = read-out: LUCIFERASE INFECTION ASSAY - IC50

SMILES	IC50 [1]	IC90	also measured
FC(F)(F)Oc1cccc(-c2[nH]nc3ccnc(-c4ccsc4)c23)c1	> 10 µM	> 10 µM	–
O=C(NC1CC1)c1ccc(-c2cnc3cnc(/C=C/c4ccccc4)cn23)cc1	–	> 8.67 µM	IC50 (HEPG2TOX_HILL_SLOPE 0.214, HEPG2TOX_R_SQUARED 0.714, PBLUC_HILL_SLOPE 0.95, PBLUC_R_SQUARED 0.815, read-out: LUCIFERASE INFECTION ASSAY - IC50): 1.05 µM
Clc1ccc(Cl)c(-c2ccc(CNCCN3CCNCC3)o2)c1	–	7.07 µM	IC50 (HEPG2TOX_HILL_SLOPE 36.7, HEPG2TOX_R_SQUARED 0.263, PBLUC_HILL_SLOPE 4.39, PBLUC_R_SQUARED 0.663, read-out: LUCIFERASE INFECTION ASSAY - IC50): 4.28 µM
CC(c1cccnc1)N(C)C(=O)c1cc(NCc2ccc3c(c2)CCO3)cc(S(=O)(=O)N2CCCC2)c1 (stereo unspecified)	> 6.34 µM	> 6.34 µM	–
Cc1ccc(-n2nnnc2-c2cnc3ccccc3c2-c2ccccc2)cc1	> 9.08 µM	> 9.08 µM	–
N#C/C(=C\Nc1cc(C(F)(F)F)cc(C(F)(F)F)c1)S(=O)(=O)c1ccccc1	–	> 7.85 µM	IC50 (FFLUC_HILL_SLOPE 0.883, FFLUC_R_SQUARED 0.592, HEPG2TOX_HILL_SLOPE 1.61, HEPG2TOX_R_SQUARED 0.979, PBLUC_HILL_SLOPE 2.79, PBLUC_R_SQUARED 0.181, read-out: LUCIFERASE INFECTION ASSAY - IC50): 4.35 µM
CC(C)(C)c1cc(C(=O)Nc2nc(C(N)CCc3ccccc3)cs2)n(Cc2ccccc2)n1 (stereo unspecified)	> 6.97 µM	> 6.97 µM	–
Cc1cc2nc3n(c2cc1C)C1(Nc2ccccc2-3)C(=O)Nc2ccccc21 (stereo unspecified)	–	3.6 µM	IC50 (PBLUC_HILL_SLOPE 13.5, PBLUC_R_SQUARED 0.192, read-out: LUCIFERASE INFECTION ASSAY - IC50): 3.06 µM
CC1(C)CCc2cc(/C=N/OC(=O)Nc3ccc(OC(F)(F)F)cc3)ccc2O1	> 8.08 µM	> 8.08 µM	–
CC(C)C(=O)Nc1ccc(-c2nc3ccccc3[nH]2)cc1	–	> 11.8 µM	IC50 (FFLUC_HILL_SLOPE 2.58, FFLUC_R_SQUARED 0.591, PBLUC_HILL_SLOPE 1.21, PBLUC_R_SQUARED 0.595, read-out: LUCIFERASE INFECTION ASSAY - IC50): 4.49 µM
CN(C)c1nc2cc(C(=O)Nc3ccccc3OC(F)F)sc2n1-c1ccccc1	–	2.47 µM	IC50 (HEPG2TOX_HILL_SLOPE 0.955, HEPG2TOX_R_SQUARED 0.898, PBLUC_HILL_SLOPE 1.96, PBLUC_R_SQUARED 0.521, read-out: LUCIFERASE INFECTION ASSAY - IC50): 0.803 µM
CCOc1cc(/C=C/C(=O)N(c2ccccc2)c2nc(-c3ccc(F)cc3)cs2)cc(Cl)c1OC	–	> 10 µM	IC50 (FFLUC_HILL_SLOPE 10.9, FFLUC_R_SQUARED 0.679, read-out: LUCIFERASE INFECTION ASSAY - IC50): > 10 µM
CC(C)Oc1ccc(Nc2nccc3[nH]c(-c4ccsc4)cc23)cc1	2.25 µM	4.09 µM	–
Cc1ccc(CNc2ncnc3sccc23)cc1	–	> 10 µM	IC50 (HEPG2TOX_HILL_SLOPE 1.53, HEPG2TOX_R_SQUARED 0.949, PBLUC_HILL_SLOPE 1.13, PBLUC_R_SQUARED 0.759, read-out: LUCIFERASE INFECTION ASSAY - IC50): 3.63 µM
O=C(N/N=C/c1ccc(N2CCCCC2)s1)c1ccccc1O	–	5.71 µM	IC50 (PBLUC_HILL_SLOPE 8.76, 2.86, PBLUC_R_SQUARED 0.104, 0.555, read-out: LUCIFERASE INFECTION ASSAY - IC50): 3.37 µM
O=C(Cc1ccsc1)NNC(=O)c1cccc(S(=O)(=O)Nc2cccc(C(F)(F)F)c2)c1	> 10 µM	> 10 µM	–
Cc1ccc2nc(NC(=O)C3CCCCC3)c(C(=O)NC3CCCCC3)n2c1	–	> 8.63 µM	IC50 (HEPG2TOX_HILL_SLOPE 0.0875, HEPG2TOX_R_SQUARED 0.133, PBLUC_HILL_SLOPE 0.199, PBLUC_R_SQUARED 0.0366, read-out: LUCIFERASE INFECTION ASSAY - IC50): > 8.63 µM
CC(C)N1C(=O)N(CCc2ccccc2)C2(CCN(C3Cc4ccccc4C3)CC2)C1=O	6.55 µM	> 7.65 µM	–
Cc1ccc(S(=O)(=O)NC(=O)c2c(C(=O)NS(=O)(=O)c3ccc(C)cc3)c(C)n(-c3ccc(N(C)C)cc3)c2C)cc1	> 10 µM	> 10 µM	–
CC(C)CNC1=C(Cl)C(=O)c2ccccc2C1=O	–	> 12.5 µM	IC50 (PBLUC_HILL_SLOPE 2.71, PBLUC_R_SQUARED 0.283, read-out: LUCIFERASE INFECTION ASSAY - IC50): 11.4 µM
Cc1cc(C)c(NC(=O)C(=O)NC(C)C)c(C)c1	–	11 µM	IC50 (PBLUC_HILL_SLOPE 3.55, PBLUC_R_SQUARED 0.214, read-out: LUCIFERASE INFECTION ASSAY - IC50): 5.93 µM
COc1ccc(NC(=O)c2ccn[nH]2)cc1NC(=O)c1ccc(Cl)cc1F	–	4.87 µM	IC50 (HEPG2TOX_HILL_SLOPE 3.17, HEPG2TOX_R_SQUARED 0.943, PBLUC_HILL_SLOPE 8.03, PBLUC_R_SQUARED 0.294, read-out: LUCIFERASE INFECTION ASSAY - IC50): 3.7 µM

SMILES	IC50 [1]	IC90	also measured
Cc1cc(C)cc(NC(=O)CNCCCn2ccc3ccccc32)c1	> 10 µM	> 10 µM	–
Cn1c(Sc2ncc([N+](=O)[O-])s2)n[nH]c1=O	–	7.26 µM	IC50 (FFLUC_HILL_SLOPE 1.35, FFLUC_R_SQUARED 0.48, HEPG2TOX_HILL_SLOPE 8.97, HEPG2TOX_R_SQUARED 0.707, PBLUC_HILL_SLOPE 6.36, PBLUC_R_SQUARED 0.781, read-out: LUCIFERASE INFECTION ASSAY - IC50): 5.14 µM
Cc1ccc(CN(C)C(=O)NNC(=O)c2ccccc2)c(C)c1	> 10 µM	> 10 µM	–
Cc1ccsc1/C=N/Nc1ccc([N+](=O)[O-])cc1S(=O)(=O)Nc1ccc(Cl)cc1	–	3.77 µM	IC50 (HEPG2TOX_HILL_SLOPE 2.24, HEPG2TOX_R_SQUARED 0.991, PBLUC_HILL_SLOPE 12.9, PBLUC_R_SQUARED 0.191, read-out: LUCIFERASE INFECTION ASSAY - IC50): 3.18 µM
Cc1cc2[nH]c(C)cc(=O)n2n1	–	> 20.2 µM	IC50 (FFLUC_HILL_SLOPE 10.3, FFLUC_R_SQUARED 0.148, read-out: LUCIFERASE INFECTION ASSAY - IC50): > 20.2 µM
Cc1cc(C(=O)CN(Cc2ccco2)S(=O)(=O)/C=C/c2ccccc2)c(C)n1C	–	> 10 µM	IC50 (HEPG2TOX_HILL_SLOPE 3.54, HEPG2TOX_R_SQUARED 0.932, PBLUC_HILL_SLOPE 9.57, PBLUC_R_SQUARED 0.198, read-out: LUCIFERASE INFECTION ASSAY - IC50): 8.84 µM
C(#Cc1ccc(-c2cc[nH]n2)s1)c1ccccc1	–	> 13.2 µM	IC50 (PBLUC_HILL_SLOPE 0.121, PBLUC_R_SQUARED 0.262, read-out: LUCIFERASE INFECTION ASSAY - IC50): 0.0465 µM
O=C1OC(c2ccccc2)Cc2cc(C(=O)N3CCC(C(=O)Nc4ccccc4)CC3)ccc21 (stereo unspecified)	–	> 10 µM	IC50 (HEPG2TOX_HILL_SLOPE 2.71, HEPG2TOX_R_SQUARED 0.817, PBLUC_HILL_SLOPE 3.44, PBLUC_R_SQUARED 0.218, read-out: LUCIFERASE INFECTION ASSAY - IC50): 6.51 µM
Oc1cc(C(F)(F)F)nc(-c2ccccn2)n1	–	5.54 µM	IC50 (HEPG2TOX_HILL_SLOPE 1.09, HEPG2TOX_R_SQUARED 0.904, PBLUC_HILL_SLOPE 3.05, PBLUC_R_SQUARED 0.293, read-out: LUCIFERASE INFECTION ASSAY - IC50): 8.2 µM
N#CC(C#N)=NNc1cc(Cl)cc(Cl)c1	–	0.565 µM	IC50 (HEPG2TOX_HILL_SLOPE 2.85, HEPG2TOX_R_SQUARED 0.913, PBLUC_HILL_SLOPE 19.7, PBLUC_R_SQUARED 0.581, read-out: LUCIFERASE INFECTION ASSAY - IC50): 0.505 µM
CC(C)c1ccc(C2C3CCc4ccccc4C3=NN2C)cc1 (stereo unspecified)	0.0716 µM	0.553 µM	–
COc1cccc(-c2ccnc3n[nH]c(-c4cccc(C(F)(F)F)c4)c23)c1	> 10 µM	> 10 µM	–
Nc1ncc(-c2cccc(OC(F)(F)F)c2)cc1-c1cncc2ccccc12	–	3.99 µM	IC50 (HEPG2TOX_HILL_SLOPE 2.29, HEPG2TOX_R_SQUARED 0.959, PBLUC_HILL_SLOPE 12.1, PBLUC_R_SQUARED 0.284, read-out: LUCIFERASE INFECTION ASSAY - IC50): 3.33 µM
CSc1ncc(C(=O)N2CCN(c3ccnc4cc(Cl)ccc34)CC2)n1-c1ccc(F)cc1	–	9.72 µM	IC50 (PBLUC_HILL_SLOPE 12.3, PBLUC_R_SQUARED 0.334, read-out: LUCIFERASE INFECTION ASSAY - IC50): 8.13 µM
O=C1C=CC(=O)N1c1cc(F)ccc1F	–	> 15.8 µM	IC50 (FFLUC_HILL_SLOPE 1.16, FFLUC_R_SQUARED 0.312, PBLUC_HILL_SLOPE 23.3, PBLUC_R_SQUARED 0.503, read-out: LUCIFERASE INFECTION ASSAY - IC50): 15.2 µM
O=C(NCCOc1ccc2ccccc2c1)c1ccccc1O	–	> 10 µM	IC50 (PBLUC_HILL_SLOPE 7.72, PBLUC_R_SQUARED 0.601, read-out: LUCIFERASE INFECTION ASSAY - IC50): 9.34 µM
COc1ccc(-c2cn3c(-c4cccc(O)c4)cnc3cn2)cn1	> 10.4 µM	> 10.4 µM	–
O=C(NCCCn1cnc2ccccc21)c1ccc(Oc2ccc(F)cc2)cc1	–	> 10 µM	IC50 (HEPG2TOX_HILL_SLOPE 1.27, HEPG2TOX_R_SQUARED 0.899, PBLUC_HILL_SLOPE 1.4, PBLUC_R_SQUARED 0.524, read-out: LUCIFERASE INFECTION ASSAY - IC50): 5.3 µM
COc1ccc(C(=O)Nc2cccc(/C=C/C(=O)c3ccc(C4CCCCC4)cc3)c2)cc1	7.51 µM	9.2 µM	–
COc1ccc(C(=O)Nc2ccc3nc(-c4cc(OC)c(OC)c(OC)c4)nn3c2)cc1OC	–	4.55 µM	IC50 (PBLUC_HILL_SLOPE 1.61, PBLUC_R_SQUARED 0.589, read-out: LUCIFERASE INFECTION ASSAY - IC50): 1.17 µM
Cc1c(C(=O)Nc2nc(CN3CCCC(C)C3)cs2)oc2ccc(Cl)cc12 (stereo unspecified)	> 10 µM	> 10 µM	–
